Values joined by “and” are separate entries in the source; they are usually repeats but may differ in a detail not shown here. Equal entries are not always repeated. “Also recorded” adds a separate entry of the source. Where two headings read alike, the source gives them in different places.
Assays:
IMQ-treated murine skin = experiment: Lactate Secretion Assay of ex vivo murine back skin culture; format: cell-based, mouse; conditions: 2-DG 50 mM, 24 hours culture
Method: To examine lactate levels in inflamed skin, full thickness biopsies of IMQ-treated or control skin were cultured for 24 hours, in the presence or absence of glycolysis inhibitor 2DG, and measured lactate in the culture supernatant (FIG. 13A). […] 4 mm full-thickness punch biopsies from IMQ-treated or healthy murine skin were secured with matrigel in 12-well plate and cultured for 24 hours in 400 μl of Dulbecco's Modified Eagle Medium (DMEM) with 10% Fetal Bovine Serum (FBS). For inhibitor studies, cultures were treated with 2-DG (50 mM). At the end of 24 hours, supernatant was collected, centrifuged at 1000 g to pellet debris, and stored in −80C until further use. Lactate was measured using the colorimetric L-Lactate Assay Kit (Abcam).

uninflamed skin = conditions: for epidermal HIF1α levels (K14+HIF1α+ cells): topical on uninflamed skin for six days
Method: To examine if HIF1α is sufficient to promote epithelial pathology in the absence of inflammation, a HIF1α activator, FG-4592, was used (Wu et al., 2016). […] Animal drug treatments. EdU pulse: Mice were injected intraperitoneally with EdU (50 μg/g) (Thermo Scientific) three hours prior to sacrifice. PIM HCl: Pimonidazole Hydrochloride (PIM HCl, hypoxyprobe) was injected intraperitoneally into mice (20 mg/kg) two hours prior to sacrifice. BAY 87-2243: BAY 87-2243 (2 mg/ml, Selleck Chemicals) was first dissolved in DMSO and then diluted in a water-based gel. This gel was topically applied to dorsal skin daily starting two days prior to imiquimod application and continuing in parallel with imiquimod application until analysis. Sodium Oxamate: Sodium oxamate (70 mg/ml, Cayman Chemicals) was first dissolved in H2O and then diluted in a water-based gel. This gel was topically applied to dorsal skin daily starting either on the first or fourth day of imiquimod application and continuing in parallel with imiquimod application until analysis. Syrosingopine: Syrosingopine (10 mg/ml, Cayman Chemicals) was first dissolved in DMSO and then diluted in a water-based gel. […] Sections were blocked and stained with primary and secondary fluorescence-conjugated antibody. […] Pimonidazole Hydrochloride (PIM HCl) was detected by pretreating slides with a mouse-on-mouse immunodetection kit (Vector Laboratories) and then staining with biotin-anti-PIM adduct antibodies as per the manufacturer's guidelines (Hypoxyprobe). Data were analyzed using ImageJ software. Epidermal thickness was quantified by measuring K14^+ thickness with an in-house ImageJ macro. Thickness of keratin 6 (K6) and glucose transporter 1 (Glut1) layer was quantified by measuring K6^+K14^+ and Glut1^+K14^+ thickness with an ImageJ macro. The number of CD3 and EdU positive cells was quantified using ImageJ software and normalized per dermis area and length of epidermis, respectively.

[1] = system: imiquimod (IMQ) PsO murine model; experiment: Imiquimod (IMQ) PsO murine model with topical inhibitor treatment; format: in vivo, mouse; conditions: for cutaneous Type 17 immunity: interventional treatment after establishment of inflammation at day 3 of IMQ; for Type 17 cytokines (Il17a, Il22, Il23a, Il1b, Tnfa): topical during the course of IMQ treatment; for cutaneous T cell numbers (dermal CD3+ cells) / epithelial (epidermal) thickness: topical from first day, during the course of IMQ treatment
Method: Murine models of psoriatic inflammation. Topical imiquimod application: For imiquimod studies, seven- to eight-week-old mice in telogen (resting phase of hair cycle) were anesthetized with isoflurane prior to hair removal and imiquimod treatment on dorsal skin. 50 mg of imiquimod cream (5%, Perrigo) was applied to shaved dorsal skin, and application was repeated up to six days as previously described (van der Fits et al., 2009). Intradermal rmIL-23 injection: For recombinant murine (rm) IL-23 studies, the ear pinnae in 8-week-old mice were intradermally injected with either rmIL-23 (500 ng in 20 μl of PBS, carrier-free, PeproTech) or PBS control for five days. Animal drug treatments. […] Murine skin immunofluorescence and image analyses. […] Nuclei were stained with DAPI. […] Data were analyzed using ImageJ software.

PsO lesional human skin = experiment: Ex vivo culture of human PsO lesional biopsies, bulk RNA-seq
From the text: Therefore, an ex vivo “trial in a dish” system was devised to test the effects of HIF1α inhibition on PsO lesional human skin. Lesional biopsies were obtained from 5 PsO patients that were either therapy-naïve or non-responsive to biologic therapy (Table 3). […] Surgical foreskin discards were used as healthy control skin and subject to the same treatment regimens.
Human skin culture. 4 mm full-thickness punch biopsies from lesional psoriatic skin and healthy skin (foreskin) were cut into […], secured with matrigel in 24-well plate and cultured within a maximum of 24-hours after removal from the patient. Each biopsy piece was subjected to different treatment conditions: (1) DMSO vehicle, (2) 10 μM of BAY87-2243, and (3) 500 nM of calcipotriol and 5 μM of betamethasone dipropionate (standard of care). The tissue was cultured in 24-well plates in 500 μl of Dulbecco's Modified Eagle Medium (DMEM) with 10% Fetal Bovine Serum (FBS). After 24 hours of culture, tissues were flash-frozen in liquid nitrogen and stored in −80° C. until RNA extraction. Total RNA was extracted using the RNeasy Fibrous Tissue Mini Kit (Qiagen) per manufacturer's instructions. Libraries were generated with Ribo-Zero Plus rRNA Depletion Kit (Illumina) and sequenced on Novaseq 6000 system with 100-bp paired-end reads.
Low-input bulk-RNA sequencing of human and murine skin. For human studies, skin biopsies were flash-frozen in liquid nitrogen following culture and treatment modalities. […] Libraries were generated with Ribo-Zero Plus rRNA Depletion Kit (Illumina) and sequenced on Novaseq 6000 system with 100-bp paired-end reads. […] Reads were trimmed for adapter sequences using trimmomatic (version 0.36) in paired end mode with the minimal read length option set to 35 base pairs, trailing set to 5, and the sliding window set to 4:15. Sequencing reads were aligned to the mouse genome (mm10/GRCm38) and human genome (hg38) using the splice-aware STAR aligner (Dobin et al, 2013). […]

PsO patients = experiment: Clinical metrics of PsO patients over course of etanercept (anti-TNFα) therapy; format: in vivo, human; design: BSA: unit not given here
Method: (§1) When compared to contralateral non-lesional skin, the PsO lesion was enriched for HIF1A, IL17RA, and IL17RC (FIGS. 3B and 8H). […] As a complementary analysis, HIF1α protein expression was measured in a cohort of 10 patients treated with etanercept (anti-TNFα) that achieved response (PASI 75 or greater) at 12 weeks (Table 2) (Stinco et al., 2019). […] Collectively, these analyses make a compelling argument for exuberant IL-17A signaling and subsequent HIF1α induction in fueling a pathological epithelial state that is resolved following successful biologic therapy, irrespective of cytokine target.

epidermal HIF1α = experiment: Immunofluorescence of PsO lesions before and after etanercept; format: in vivo, human; conditions: n=10
Method: as §1
Human skin immunofluorescence and image analyses. Four-micron paraffin-embedded sections were stained either with hematoxylin and eosin or with Akoya Biosciences® Opal™ multiplex automation kit on a Leica BondRX® autostainer, according to manufacturers' instructions. Semi-automated image acquisition was performed on a Vectra® Polaris multispectral imaging system. After whole slide scanning at 20× the tissue was manually outlined to select fields for spectral unmixing using InForm® version 2.4.11 software from Akoya Biosciences.

[2] = BAY 87-2243 topical concurrent with IMQ, vs vehicle
[3] = treatment begins on day 3 of IMQ application, up to day 6, vs vehicle
[4] = vs vehicle, listed as MCT1/MCT4 inhibitor
[5] = Week 2 of etanercept, one line per individual patient
[6] = Week 6 of etanercept, one line per individual patient
[7] = Week 12 of etanercept, one line per individual patient

`O=CC[C@@H](O)[C@H](O)[C@H](O)CO` [2DG, 2-Deoxy-D-glucose] was tested, and the “lactate in culture supernatant, IMQ-treated vs control skin” value (IMQ-treated murine skin) was “diminished” and the “lactate in culture supernatant, IMQ-treated vs control skin” value (IMQ-treated murine skin; listed as 2-DG) was “lost”.

`Cc1cc(-c2nc(-c3ccc(OC(F)(F)F)cc3)no2)nn1Cc1ccnc(N2CCN(C3CC3)CC2)c1` [BAY 87-2243] was tested, and the epidermal thickness (uninflamed skin; mouse, in vivo) was “not altered”, the epidermal thickness ([1]; BAY 87-2243 2 mg/ml gel topical daily from two days prior to and concurrent with IMQ, vs vehicle) was “diminished; also recorded: significantly reduced” and the “dermal T cells (CD3+)” value ([1]; BAY 87-2243 topical concurrent with IMQ, vs control) was “reduction; also recorded: significantly lower numbers”. For the same compound, the “inflammatory Keratin 6 expression (K6 thickness)” value [1, 2] was “significantly reduced”, the “proliferation (Ki67)” value [1, 2] was “significantly reduced” and the “genes associated with glycolytic metabolism, STAT3 activation and epithelial development/differentiation” value (PsO lesional human skin; PsO lesional skin, 10 μM, 24 hours, vs vehicle) was “strikingly downregulated”. For the same compound, the “number of differentially expressed genes (DEGs) compared to vehicle control” value (PsO lesional human skin; PsO lesional skin, 24 hours in culture, FDR<0.05, 10 μM BAY87-2243, SoC 500 nM calcipotriol and 5 μM betamethasone dipropionate) was 2921 and the “expression of lactate transporters SLC16A1 (MCT1) and SLC16A3 (MCT4)” value (PsO lesional human skin; human PsO lesional skin culture, 24 hours) was “significantly reduced”.

With `Cc1nc(C(=O)NCC(=O)O)c(O)c2ccc(Oc3ccccc3)cc12` [FG-4592] the “epidermal HIF1α levels (K14+HIF1α+ cells)” value (uninflamed skin) was “effectively heightened” and the “epidermal HIF1α levels (K14+HIF1α+ cells)” value (uninflamed skin; listed as FG-4985) was “increased”.

In the case of `NC(=O)C(=O)[O-].[Na+]` [sodium oxamate], the “cutaneous Type 17 immunity” value [1] is reported as “decrease”, the “Type 17 cytokines (Il17a, Il22, Il23a, Il1b, Tnfa)” value [1] is reported as “sufficient to limit” and the “cutaneous T cell numbers (dermal CD3+ cells)” value (“cutaneous T cell numbers” below) ([1]; vs vehicle) is reported as “diminished; also recorded: sufficient to limit”. The “epithelial (epidermal) thickness” value ([1]; vs vehicle) was “diminished; also recorded: sufficient to limit”, the epidermal thickness [1, 3] was “decrease” and the “dermal CD3+ cells” value ([1]; treatment begins on day 3 of IMQ application, vs vehicle) was “diminished”.

`CCOC(=O)Oc1c(OC)cc(C(=O)O[C@@H]2C[C@@H]3CN4CCc5c([nH]c6cc(OC)ccc56)[C@H]4C[C@@H]3[C@H](C(=O)OC)[C@H]2OC)cc1OC` [syrosingopine] was tested, and the “cutaneous Type 17 immunity” value [1] was “decrease”, the “Type 17 cytokines (Il17a, Il22, Il23a, Il1b, Tnfa)” value [1] was “sufficient to limit” and the “cutaneous T cell numbers” value ([1]; vs vehicle) was “sufficient to limit”. The “epithelial (epidermal) thickness” value ([1]; vs vehicle) was “sufficient to limit”, the “cutaneous T cell numbers” value [1, 4] was “diminished” and the “epithelial (epidermal) thickness” value [1, 4] was “diminished”. The epidermal thickness [1, 3] was “decrease” and the “dermal CD3+ cells” value ([1]; treatment begins on day 3 of IMQ application, vs vehicle, listed as MCT1/MCT4 inhibitor) was “diminished”.

For etanercept, the BSA (PsO patients; [5]) was 9 and 22 and 15 (2×) and 11 and 12 and 76 and 29 and 19 and 20, the “Static Physician's Global Assessment (SPGA)” value (PsO patients; [5]) was 3 (6×) and 2 (2×) and 4 (2×) and the PASI (PsO patients; Week 2 of etanercept, one line per individual patient (Patient 28-40)) was 9.5 and 3.9 and 8.1 and 9.4 and 14.3 and 31.5 and 17.4 and 18.8 and 10.7 and 10.8. The BSA (PsO patients; [6]) was 8 (2×) and 4 and 15 and 11 and 39 and 25 and 13 and 18 and 16, the PASI (PsO patients; [6]) was 7.4 and 2.7 and 4.8 and 8.4 and 4.4 and 15 and 6.6 and 12.3 and 8.2 and 4.5 and the “Static Physician's Global Assessment (SPGA)” value (PsO patients; [6]) was 3 (3×) and 1 and 2 (6×). The BSA (PsO patients; [7]) was 6 and 3 (2×) and 10 and 15 and 27 and 1 and 7 and 18 and 8, the PASI (PsO patients; [7]) was 4.5 (2×) and 2.7 and 2.4 and 11.6 and 3.2 and 12 and 0 and 2 and 8.4 and the “Static Physician's Global Assessment (SPGA)” value (PsO patients; [7]) was 2 (4×) and 1 (4×) and 3 (2×). The PASI response achieved (PsO patients; cohort of 10 patients, at 12 weeks) was no less than 75, the “cutaneous Type 17 cells” value (epidermal HIF1α; etanercept responsive patients) was “reduction” and the “epidermal hyperplasia (epidermal thickness)” value (epidermal HIF1α; etanercept-responsive patients, post-treated vs pre-treated lesional skin) was “reduced epidermal hyperplasia”. For the same compound, the “expression of (nuclear) epidermal HIF1α” value (epidermal HIF1α; post-treated vs pre-treated lesional PsO epidermis, responsive patients) was “lower expression; also recorded: reduced”.

Source: patent publication US20250075218A1, “HIF1A OR GLUT1 INHIBITION IN INFLAMMATORY SKIN DISEASES” (New York University, priority 2023, published 2025)
